Source: US8663912B2, “Fluorogenic substrate for ADAMTS13” (Washington University, priority 2011, dated 2014)
* marks the point of attachment. X1 = CC1(C)C(/C=C/C2=C(Cl)C(=C/C=C3/N(CCCCCC(=O)*)c4ccc5cc(S(=O)(=O)O)ccc5c4C3(C)C)/CCC2)=[N+](CCCS(=O)(=O)[O-])c2ccc(N(CCCS(=O)(=O)O)CCCS(=O)(=O)O)cc21; X2 = CC(C)(C)c1cc(/C=C/C=C2\N(CCCS(=O)(=O)O)c3ccc(S(=O)(=O)O)cc3C2(C)CCCC(=O)CCN2C(=O)CC(*)C2=O)c2ccc(N(CCCS(=O)(=O)[O-])CCCS(=O)(=O)O)cc2[o+]1

Target: T1, ADAMTS13 (Homo sapiens, UniProt Q76LX8)
T1 sequence (Q76LX8 75-1427): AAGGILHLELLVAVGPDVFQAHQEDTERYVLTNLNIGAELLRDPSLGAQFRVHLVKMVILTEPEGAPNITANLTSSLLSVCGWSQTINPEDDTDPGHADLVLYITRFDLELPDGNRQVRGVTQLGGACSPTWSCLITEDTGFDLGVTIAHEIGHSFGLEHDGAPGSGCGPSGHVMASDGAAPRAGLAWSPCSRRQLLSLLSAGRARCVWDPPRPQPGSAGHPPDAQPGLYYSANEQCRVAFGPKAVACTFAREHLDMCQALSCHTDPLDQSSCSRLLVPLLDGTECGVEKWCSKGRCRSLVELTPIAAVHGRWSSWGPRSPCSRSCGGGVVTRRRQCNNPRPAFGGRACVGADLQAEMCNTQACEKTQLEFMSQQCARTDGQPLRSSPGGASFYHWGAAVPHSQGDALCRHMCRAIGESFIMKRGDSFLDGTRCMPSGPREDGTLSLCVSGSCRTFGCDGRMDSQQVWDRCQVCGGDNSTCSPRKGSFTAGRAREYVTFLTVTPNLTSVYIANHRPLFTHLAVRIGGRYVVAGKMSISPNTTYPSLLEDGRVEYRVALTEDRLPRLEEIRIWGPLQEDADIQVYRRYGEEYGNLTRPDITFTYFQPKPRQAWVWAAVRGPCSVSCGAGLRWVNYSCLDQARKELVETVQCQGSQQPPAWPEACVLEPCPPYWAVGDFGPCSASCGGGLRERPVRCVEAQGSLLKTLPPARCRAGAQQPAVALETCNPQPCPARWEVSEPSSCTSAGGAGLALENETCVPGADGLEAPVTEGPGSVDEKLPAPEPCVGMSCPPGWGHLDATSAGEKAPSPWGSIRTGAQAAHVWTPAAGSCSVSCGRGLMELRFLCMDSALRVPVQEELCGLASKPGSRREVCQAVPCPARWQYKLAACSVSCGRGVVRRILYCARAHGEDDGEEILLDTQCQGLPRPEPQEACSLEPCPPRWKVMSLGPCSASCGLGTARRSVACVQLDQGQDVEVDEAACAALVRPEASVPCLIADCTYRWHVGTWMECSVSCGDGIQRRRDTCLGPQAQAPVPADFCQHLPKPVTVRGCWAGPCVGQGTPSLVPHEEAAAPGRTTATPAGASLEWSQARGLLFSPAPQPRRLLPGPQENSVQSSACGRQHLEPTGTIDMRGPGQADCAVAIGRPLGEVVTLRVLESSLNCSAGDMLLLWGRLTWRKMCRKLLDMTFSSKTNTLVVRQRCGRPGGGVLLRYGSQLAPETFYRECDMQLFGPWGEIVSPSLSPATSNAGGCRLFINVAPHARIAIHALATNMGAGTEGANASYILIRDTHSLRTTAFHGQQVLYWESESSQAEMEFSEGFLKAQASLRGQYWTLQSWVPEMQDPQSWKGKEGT
Assay: ADAMTS13 activity of plasma samples with FRETS-rVWF71 substrate
Format: biochemical
Parameters: from tissue; host or cells: human plasma or serum (pooled normal plasma, healthy donors, TTP patients)
Conditions: samples from patients with idiopathic TTP
Method: Assays were performed at 30° C. Samples (100 μL) of plasma or serum, diluted as necessary in assay buffer, were pipetted in duplicate in 96 well white microplates (Optiplate-96, PerkinElmer, Waltham, Mass.). Reaction was initiated by addition of 100 μL substrate in assay buffer. Cleavage of FRETS-rVWF71 was detected as an increase in fluorescence compared to control reactions without added enzyme at 2 min intervals using a Victor^2V Multilabel Counter (PerkinElmer, Waltham, Mass.) or Synergy H1 Hybrid Multi-Mode Microplate Reader (Biotek, Winooski, Vt.) equipped with 635±10 nm excitation and 660±10 nm emission filters. Initial velocities were determined by fitting progress curves to the polynomial ΔF=A+Bt+Ct^2, where ΔF is the change in fluorescence, t is time, A is the y-intercept, B is the initial velocity (slope), and the term Ct^2 accounts for any decline in velocity due to substrate consumption or photobleaching.
In these experiments, frozen Li^+-heparin plasma samples were obtained from 100 healthy controls (Biological Specialty Corp., Colmar, Pa.) deidentified except for demographic information on gender, age, and ethnicity. Pooled normal Li^+-heparin plasma (PNP) for assay standardization was prepared from at least 35 donors. […] activity of randomly selected controls samples was determined by the FRETS-VWF73 method. […]

Substance: X1-GQAPNLVYMVTGC(X2)PASDEIRRLPGDIQVVPIGVGPNANVQELERIGWPNAPILIQDFETLPREAPDLVLQR [FRETS-rVWF71]
- sensitivity of ADAMTS13 activity assay relative to FRETS-VWF73: 20 fold
